{"source": "ChEMBL document CHEMBL1938360", "about": "“6-Amino quinazolinedione sulfonamides as orally active competitive AMPA receptor antagonists” (Bioorg Med Chem Lett, 2012)", "key": {"[1]": {"test": "Displacement of [3H]CNQX from AMPA receptor on rat brain homogenate", "assay_type": "tissue-based"}, "[2]": {"tested_on": "Mus musculus", "test": "Anticonvulsant activity in DBA/2 mouse assessed as protection from audiogenic seizures at 30 mg/kg, po measured 1 hr post administration", "assay_type": "functional"}, "[3]": {"tested_on": "Mus musculus", "test": "Anticonvulsant activity in DBA/2 mouse assessed as protection from audiogenic seizures at 10 mg/kg, po measured 1 hr post administration", "assay_type": "functional"}, "[4]": {"tested_on": "Mus musculus", "test": "Anticonvulsant activity in DBA/2 mouse assessed as protection from audiogenic seizures at 30 mg/kg, ip measured 1 hr post administration", "assay_type": "functional, organism-based", "parameters": "dose 30 mg/kg"}, "[5]": {"test": "Oral bioavailability in DBA/2 mouse at 30 mg/kg", "assay_type": "ADME, organism-based", "conditions": "in vivo"}, "[6]": {"test": "Clearance in DBA/2 mouse at 30 mg/kg", "assay_type": "ADME, organism-based", "parameters": "dose 30 mg/kg", "conditions": "in vivo"}, "[7]": {"tested_on": "Mus musculus", "test": "Anticonvulsant activity against po dosed electric-shock mouse model assessed as inhibition of convulsion in hind legs measured 2 hrs post administration", "assay_type": "functional"}, "[8]": {"tested_on": "Mus musculus", "test": "Anticonvulsant activity against po dosed electric-shock mouse model assessed as inhibition of convulsion in hind legs at 50 mg/kg, po measured 4 hrs post administration", "assay_type": "functional"}, "[9]": {"tested_on": "Mus musculus", "test": "Anticonvulsant activity in orally dosed DBA/2 mouse assessed as protection from tonic seizures measured 1 hr post administration", "conditions": "DBA/2, po"}, "[10]": {"tested_on": "Mus musculus", "test": "Anticonvulsant activity in intraperitoneally dosed DBA/2 mouse assessed as protection from tonic seizures measured 1 hr post administration", "assay_type": "functional", "conditions": "DBA/2, ip"}}, "note": "The source made the active and inactive calls. The rule behind the calls is not given here."}
{"smiles": "CCNc1cc2c(=O)n(NS(C)(=O)=O)c(=O)[nH]c2cc1C(F)(F)F", "values": [{"measurement": "IC50", "setting": "[1]", "value": 1000, "unit": "nM"}, {"measurement": "Activity", "setting": "[2]", "value": 53, "unit": "%"}]}
{"smiles": "CS(=O)(=O)Nn1c(=O)[nH]c2cc(C(F)(F)F)c(NCCO)cc2c1=O", "values": [{"measurement": "IC50", "setting": "[1]", "value": 550, "unit": "nM"}, {"measurement": "Activity", "setting": "[3]", "value": 20, "unit": "%"}]}
{"smiles": "CS(=O)(=O)Nn1c(=O)[nH]c2cc(C(F)(F)F)c(-n3cccc3)cc2c1=O", "values": [{"measurement": "IC50", "setting": "[1]", "value": 165, "unit": "nM"}]}
{"smiles": "CNC(=O)c1ncn(-c2cc3c(=O)n(NS(C)(=O)=O)c(=O)[nH]c3cc2C(F)(F)F)n1", "values": [{"measurement": "IC50", "setting": "[1]", "value": 110, "unit": "nM"}]}
{"smiles": "CN(C)C(=O)c1cn(-c2cc3c(=O)n(NS(C)(=O)=O)c(=O)[nH]c3cc2C(F)(F)F)cn1", "values": [{"measurement": "IC50", "setting": "[1]", "value": 420, "unit": "nM"}]}
{"smiles": "CNC(=O)c1cn(-c2cc3c(=O)n(NS(C)(=O)=O)c(=O)[nH]c3cc2C(F)(F)F)cn1", "values": [{"measurement": "Activity", "setting": "[4]", "value": "Active"}, {"measurement": "Activity", "setting": "[2]", "value": "inactive"}, {"measurement": "bioavailability", "setting": "[5]", "value": 10, "unit": "%"}]}
{"smiles": "CS(=O)(=O)Nn1c(=O)[nH]c2cc(C(F)(F)F)c(N3CCCOCC3)cc2c1=O", "values": [{"measurement": "IC50", "setting": "[1]", "value": 360, "unit": "nM"}, {"measurement": "bioavailability", "setting": "[5]", "value": 100, "unit": "%"}, {"measurement": "clearance", "setting": "[6]", "value": 10.2, "unit": "mL/min/kg"}, {"measurement": "ED50", "setting": "[7]", "value": 10.5, "unit": "mg/kg"}, {"measurement": "inhibition in vivo at 50 mg/kg", "setting": "[8]", "value": 20, "unit": "%"}, {"measurement": "ED50", "setting": "[9]", "value": 5.5, "unit": "mg/kg"}]}
{"smiles": "CN(CCO)c1cc2c(=O)n(NS(C)(=O)=O)c(=O)[nH]c2cc1C(F)(F)F", "values": [{"measurement": "IC50", "setting": "[1]", "value": 250, "unit": "nM"}, {"measurement": "ED50", "setting": "[10]", "value": 7.9, "unit": "mg/kg"}, {"measurement": "bioavailability", "setting": "[5]", "value": 100, "unit": "%"}, {"measurement": "clearance", "setting": "[6]", "value": 49, "unit": "mL/min/kg"}]}
{"smiles": "CN(C)C(=O)c1ncn(-c2cc3c(=O)n(NS(C)(=O)=O)c(=O)[nH]c3cc2C(F)(F)F)n1", "values": [{"measurement": "IC50", "setting": "[1]", "value": 1020, "unit": "nM"}]}
{"smiles": "CS(=O)(=O)Nn1c(=O)[nH]c2cc([N+](=O)[O-])c(-n3ccnc3)cc2c1=O", "values": [{"measurement": "IC50", "setting": "[1]", "value": 81, "unit": "nM"}, {"measurement": "Activity", "setting": "[4]", "value": "Active"}, {"measurement": "Activity", "setting": "[2]", "value": "inactive"}]}
{"smiles": "CS(=O)(=O)Nn1c(=O)[nH]c2cc(C(F)(F)F)c(N3CCOCC3)cc2c1=O", "values": [{"measurement": "IC50", "setting": "[1]", "value": 500, "unit": "nM"}, {"measurement": "ED50", "setting": "[10]", "value": 58, "unit": "mg/kg"}, {"measurement": "bioavailability", "setting": "[5]", "value": 100, "unit": "%"}, {"measurement": "clearance", "setting": "[6]", "value": 135, "unit": "mL/min/kg"}]}
{"smiles": "CS(=O)(=O)Nn1c(=O)[nH]c2cc(C(F)(F)F)c(-n3ccnc3)cc2c1=O", "values": [{"measurement": "IC50", "setting": "[1]", "value": 44, "unit": "nM"}, {"measurement": "Activity", "setting": "[4]", "value": "Active"}, {"measurement": "Activity", "setting": "[2]", "value": "inactive"}]}
{"smiles": "CS(=O)(=O)Nn1c(=O)[nH]c2cc(C(F)(F)F)c(-n3cnnc3)cc2c1=O", "values": [{"measurement": "IC50", "setting": "[1]", "value": 46, "unit": "nM"}, {"measurement": "Activity", "setting": "[4]", "value": "Active"}, {"measurement": "Activity", "setting": "[2]", "value": "inactive"}, {"measurement": "ED50", "setting": "[10]", "value": 0.94, "unit": "mg/kg"}, {"measurement": "bioavailability", "setting": "[5]", "value": 10, "unit": "%"}]}
{"smiles": "CS(=O)(=O)Nn1c(=O)[nH]c2cc(C(F)(F)F)c(N)cc2c1=O", "values": [{"measurement": "IC50", "setting": "[1]", "value": 1200, "unit": "nM"}]}
